The source made the active and inactive calls.
Tests used:
[1] = target: T1, Replicative DNA helicase DnaB (Mycobacterium tuberculosis, UniProt P9WMR3); experiment: DnaB intein splicing inhibitors, dose response, biochemical, cell-free fluorescence (AID 449749); type: functional
T1 sequence (P9WMR3 whole entry): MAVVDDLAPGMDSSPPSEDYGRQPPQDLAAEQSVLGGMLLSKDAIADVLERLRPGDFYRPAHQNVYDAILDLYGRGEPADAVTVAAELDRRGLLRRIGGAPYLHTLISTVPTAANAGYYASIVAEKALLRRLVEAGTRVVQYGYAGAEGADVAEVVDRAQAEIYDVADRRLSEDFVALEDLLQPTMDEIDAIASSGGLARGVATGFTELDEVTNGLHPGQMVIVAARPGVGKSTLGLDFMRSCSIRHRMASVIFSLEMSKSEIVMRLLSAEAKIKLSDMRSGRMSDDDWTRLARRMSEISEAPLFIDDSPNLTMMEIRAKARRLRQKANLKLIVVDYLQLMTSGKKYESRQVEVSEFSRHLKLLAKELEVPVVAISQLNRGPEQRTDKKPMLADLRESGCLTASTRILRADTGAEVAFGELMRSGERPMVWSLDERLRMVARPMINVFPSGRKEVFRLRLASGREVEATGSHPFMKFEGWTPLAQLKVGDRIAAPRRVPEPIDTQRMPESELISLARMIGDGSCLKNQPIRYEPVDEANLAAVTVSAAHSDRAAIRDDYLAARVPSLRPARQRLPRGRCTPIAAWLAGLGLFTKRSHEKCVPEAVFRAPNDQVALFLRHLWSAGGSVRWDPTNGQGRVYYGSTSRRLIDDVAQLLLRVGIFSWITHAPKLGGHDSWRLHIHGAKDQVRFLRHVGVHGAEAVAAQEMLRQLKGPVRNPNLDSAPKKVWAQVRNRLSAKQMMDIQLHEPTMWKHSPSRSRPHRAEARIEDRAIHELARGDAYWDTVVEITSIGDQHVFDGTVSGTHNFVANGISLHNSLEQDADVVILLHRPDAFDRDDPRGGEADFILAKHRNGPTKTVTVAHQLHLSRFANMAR

[2] = target: T2, Kappa-type opioid receptor (Homo sapiens, UniProt P41145); type: functional
[3] = target: E3 ubiquitin-protein ligase Mdm2 (Homo sapiens, UniProt Q00987); experiment: enhancers of MDM2-luciferase reporter signal, concentration-effect titration, project on inhibitors of MDM2 ubiquitin ligase, cellular assay, luminescent readout, 384-well plate format (AID 1394); type: functional;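 further: MDM2 E3 inhibitors raise luminescence so EC50 is for signal enhancement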
[4] = target: T3, Delta-type opioid receptor (Homo sapiens, UniProt P41143); experiment: HTS Image-Based Screen for Agonists of the DOR Receptor. [Related pubchem assays (depositor defined):AID1777, AID1786, AID2133]; type: functional
Beta-galactosidase = Beta-galactosidase (Escherichia coli, UniProt Q8VNN2); type: functional
[5] = inhibitors of firefly luciferase expression or activity, dose response, H4 neuroglioma cells, luminescence (AID 1990); type: functional, cell-based
[6] = target: T3, Delta-type opioid receptor; experiment: HTS Image-Based Screen for Antagonists of the DOR Receptor. [Related pubchem assays (depositor defined):AID1777, AID1785, AID1786, AID2133]; type: functional
[7] = target: T2, Kappa-type opioid receptor; type: functional; remark: listed apart in the source
[8] = target: G-protein coupled receptor 35 (Homo sapiens, UniProt Q9HC97); experiment: GPR35 antagonists blocking zaprinast-driven arrestin recruitment, primary screen, imaging, U2OS, beta-arrestin-GFP, zaprinast agonist (AID 2058); type: functional;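 further: antagonist potency meaning inhibition of agonist-induced arrestin redistribution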
Protein RecA = target: T4, Protein RecA (Mycobacterium tuberculosis, UniProt P9WHJ3); experiment: Fluorescence Cell-Free Homogeneous Dose Retest to Identify Inhibitors of RecA-Intein Splicing Activity. [Related pubchem assays (depositor defined):AID2097, AID2223, AID489010, AID492950]; type: functional
T4 sequence (P9WHJ3 whole entry): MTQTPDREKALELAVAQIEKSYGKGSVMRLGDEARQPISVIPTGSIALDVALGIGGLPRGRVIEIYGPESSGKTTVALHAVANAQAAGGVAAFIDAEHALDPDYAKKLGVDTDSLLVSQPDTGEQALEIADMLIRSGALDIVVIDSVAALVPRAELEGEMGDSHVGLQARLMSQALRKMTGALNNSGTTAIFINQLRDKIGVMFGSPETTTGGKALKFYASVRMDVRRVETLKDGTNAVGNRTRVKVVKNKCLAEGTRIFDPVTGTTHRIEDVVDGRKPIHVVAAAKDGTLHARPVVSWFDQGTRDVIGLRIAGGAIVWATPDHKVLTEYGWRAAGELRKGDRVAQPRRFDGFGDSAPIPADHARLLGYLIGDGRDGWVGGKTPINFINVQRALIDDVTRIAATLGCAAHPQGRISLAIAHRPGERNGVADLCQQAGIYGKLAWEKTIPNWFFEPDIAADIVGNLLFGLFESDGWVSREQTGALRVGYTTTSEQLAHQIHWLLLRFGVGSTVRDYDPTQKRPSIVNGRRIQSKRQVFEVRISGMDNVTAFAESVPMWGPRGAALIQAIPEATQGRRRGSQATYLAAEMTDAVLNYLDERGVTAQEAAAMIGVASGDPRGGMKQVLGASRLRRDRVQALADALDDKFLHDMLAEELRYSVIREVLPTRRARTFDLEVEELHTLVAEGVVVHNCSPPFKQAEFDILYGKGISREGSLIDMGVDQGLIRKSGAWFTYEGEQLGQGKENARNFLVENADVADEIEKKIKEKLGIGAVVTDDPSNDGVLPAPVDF

[9] = inhibitors of SNCA 5'UTR-driven reporter translation, confirmation, H4 neuroglioma cells, luminescence (AID 1988); type: functional, cell-based
[10] = Luminescence Cell-Based Dose Response HTS to Identify Inhibitors of 5'UTR Stem-Loop Driven Prion Protein mRNA Translation in H4 Neuroglioblastoma Cells. [Related pubchem assays: 1827 (Project Summary), 1813 (Primary HTS)]; type: functional
[11] = target: G-protein coupled receptor 55 (Homo sapiens, UniProt Q9Y2T6); experiment: GPR55 antagonists blocking LPI-driven arrestin recruitment, primary screen, imaging, U2OS, beta-arrestin-GFP, LPI agonist (AID 2013); type: functional;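 further: antagonist potency measured as reduced agonist-driven arrestin aggregation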
Mu-type opioid receptor [12] = target: T5, Mu-type opioid receptor (Homo sapiens, UniProt P35372); experiment: HTS Image-Based Screen for Agonists of the MOR Receptor. [Related pubchem assays (depositor defined):AID1777, AID1785, AID1786, AID2133]; type: functional
[13] = Vero cell cytotoxicity, dose response, cytotoxicity control for Vif-APOBEC3G degradation inhibitor project, Vero cells (AID 1117358); type: functional; details: Human immunodeficiency virus 1, Vero
SUMO-activating enzyme [14] = target: T6, SUMO-activating enzyme (Homo sapiens, UniProt Q9UBT2); experiment: inhibitors of in vitro SUMOylation cascade, primary screen, biochemical, HTRF, uHTS (AID 2006); type: protein-complex assay
[15] = THP-1 cell cytotoxicity, dose response, cytotoxicity control for Vif-APOBEC3G degradation inhibitor project, THP-1 cells (AID 1117359); type: functional; details: Human immunodeficiency virus 1, THP-1
[16] = target: Tyrosine-protein phosphatase non-receptor type 7 (Homo sapiens, UniProt P35236); experiment: redox-dependent HePTP inhibition, mechanism study, biochemical, fluorescence (AID 2068); type: functional
SUMO-activating enzyme [17] = target: T6, SUMO-activating enzyme; experiment: SUMOylation inhibitor hit validation, confirmation, SUMOylation inhibitor project, biochemical, AlphaScreen (AID 2018); type: functional
Bcl-2-like protein 10 = target: T7, Bcl-2-like protein 10 (Homo sapiens, UniProt Q9HD36); experiment: displacers of TR3 peptide from Bcl-B, primary screen, selectivity assay for Bfl-1 inhibitor project, biochemical, fluorescence polarization, FITC-TR3 peptide (AID 748);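 further: fluorescence polarization from a fluorescein-labelled TR3 peptide binding purified Bcl-B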
T7 sequence (Q9HD36 whole entry): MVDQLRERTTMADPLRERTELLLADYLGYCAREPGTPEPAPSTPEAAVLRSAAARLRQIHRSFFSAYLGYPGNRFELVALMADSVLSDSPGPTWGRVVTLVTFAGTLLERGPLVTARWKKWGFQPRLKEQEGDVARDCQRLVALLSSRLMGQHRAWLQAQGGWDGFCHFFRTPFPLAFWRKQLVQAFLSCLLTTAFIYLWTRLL

[18] = target: Alkaline phosphatase, placental type (Homo sapiens, UniProt P05187); experiment: PLAP enzyme inhibitors, confirmation, biochemical, luminescence (AID 1512); type: functional
[19] = target: T8, Zinc finger protein mex-5 (Caenorhabditis elegans, UniProt Q9XUB2); experiment: MEX-5/TCR-2 RNA interaction inhibitors, dose response, biochemical, C. elegans, fluorescence polarization (AID 1960)
T8 sequence (Q9XUB2 whole entry): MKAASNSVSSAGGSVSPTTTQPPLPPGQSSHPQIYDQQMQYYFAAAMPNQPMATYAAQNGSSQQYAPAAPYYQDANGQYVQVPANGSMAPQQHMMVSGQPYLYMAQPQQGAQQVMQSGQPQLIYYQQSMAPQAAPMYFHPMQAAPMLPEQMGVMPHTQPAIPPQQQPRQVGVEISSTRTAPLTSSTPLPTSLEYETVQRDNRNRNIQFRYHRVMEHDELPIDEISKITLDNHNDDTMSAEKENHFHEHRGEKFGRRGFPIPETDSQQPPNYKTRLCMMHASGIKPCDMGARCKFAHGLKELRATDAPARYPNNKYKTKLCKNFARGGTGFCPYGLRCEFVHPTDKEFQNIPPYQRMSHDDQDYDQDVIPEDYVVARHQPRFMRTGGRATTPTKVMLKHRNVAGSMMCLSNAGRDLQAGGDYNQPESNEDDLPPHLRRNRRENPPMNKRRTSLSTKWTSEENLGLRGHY

[20] = target: T9, RNA-binding protein pos-1 (Caenorhabditis elegans, UniProt G5EF15); experiment: inhibitors of POS-1/mex-3 RNA binding, dose response, biochemical, fluorescence polarization (AID 1964);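 further: purified POS-1 fused to maltose binding protein made in E. coli; potency of compounds blocking POS-1 binding to fluorescent RNA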
T9 sequence (G5EF15 whole entry): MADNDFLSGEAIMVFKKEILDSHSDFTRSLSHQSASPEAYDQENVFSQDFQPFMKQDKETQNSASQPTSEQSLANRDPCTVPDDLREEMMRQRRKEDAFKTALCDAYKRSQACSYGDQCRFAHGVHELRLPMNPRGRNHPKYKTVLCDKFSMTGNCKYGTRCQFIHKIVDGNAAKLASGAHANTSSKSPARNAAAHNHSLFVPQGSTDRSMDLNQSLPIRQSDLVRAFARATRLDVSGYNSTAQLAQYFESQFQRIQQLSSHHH

[21] = target: T2, Kappa-type opioid receptor; experiment: SAR analysis of small molecule antagonists of the kappa opioid receptor via a luminescent beta-arrestin assay - Set 3. [Related pubchem assays (depositor defined):AID1777, AID1778, AID1785, AID1786, AID1966, AID2133, AID2136, AID2285, AID2495]; type: functional
Mu-type opioid receptor [22] = target: T5, Mu-type opioid receptor; experiment: SAR Analysis of Antagonists of the MOR Receptor using an Image-Based Assay - Set 3. [Related pubchem assays (depositor defined):AID1777, AID1785, AID1786, AID1966, AID2133, AID2136, AID2284, AID2285, AID2420]; type: functional
[23] = target: T3, Delta-type opioid receptor; experiment: SAR Analysis of Antagonists of the DOR Receptor using an Image-Based Assay - Set 3. [Related pubchem assays (depositor defined):AID1777, AID1785]; type: functional
[24] = target: T2, Kappa-type opioid receptor; experiment: SAR analysis of Antagonists of the Kappa Opioid Receptor (KOR) using an Image-Based Assay - Set 3. [Related pubchem assays (depositor defined):AID1777, AID1785]; type: functional

T3 sequence (P41143 whole entry): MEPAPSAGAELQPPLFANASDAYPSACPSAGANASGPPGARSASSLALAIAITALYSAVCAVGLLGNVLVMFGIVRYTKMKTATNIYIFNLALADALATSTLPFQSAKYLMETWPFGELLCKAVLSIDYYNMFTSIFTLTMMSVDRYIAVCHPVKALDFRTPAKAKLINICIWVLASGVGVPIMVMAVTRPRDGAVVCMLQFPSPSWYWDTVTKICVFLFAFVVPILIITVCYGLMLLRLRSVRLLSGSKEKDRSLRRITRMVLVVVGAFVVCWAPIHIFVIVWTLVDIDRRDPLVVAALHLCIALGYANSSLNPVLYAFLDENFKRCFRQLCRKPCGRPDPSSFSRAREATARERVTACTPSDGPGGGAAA
T2 sequence (P41145 whole entry): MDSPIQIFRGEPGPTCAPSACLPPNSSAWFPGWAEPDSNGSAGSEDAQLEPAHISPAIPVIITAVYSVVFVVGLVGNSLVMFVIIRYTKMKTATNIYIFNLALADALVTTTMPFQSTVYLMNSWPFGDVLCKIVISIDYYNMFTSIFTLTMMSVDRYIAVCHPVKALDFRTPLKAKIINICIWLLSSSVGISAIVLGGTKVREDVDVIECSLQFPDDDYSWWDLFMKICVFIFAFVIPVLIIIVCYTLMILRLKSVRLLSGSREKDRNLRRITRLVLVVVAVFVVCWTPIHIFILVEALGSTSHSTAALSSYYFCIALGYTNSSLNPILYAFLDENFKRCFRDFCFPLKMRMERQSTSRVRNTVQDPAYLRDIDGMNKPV
T5 sequence (P35372 whole entry): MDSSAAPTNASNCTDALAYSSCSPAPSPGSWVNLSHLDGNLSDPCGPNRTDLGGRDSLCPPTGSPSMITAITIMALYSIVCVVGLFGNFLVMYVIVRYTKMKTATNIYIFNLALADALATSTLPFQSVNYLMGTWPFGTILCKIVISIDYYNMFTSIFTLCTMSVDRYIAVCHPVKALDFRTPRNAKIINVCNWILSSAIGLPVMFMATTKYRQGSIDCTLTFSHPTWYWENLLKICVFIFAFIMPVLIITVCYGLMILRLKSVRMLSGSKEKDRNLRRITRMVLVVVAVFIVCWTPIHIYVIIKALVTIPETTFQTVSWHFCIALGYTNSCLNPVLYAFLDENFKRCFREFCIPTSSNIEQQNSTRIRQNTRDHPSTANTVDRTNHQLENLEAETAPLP
T6 sequence (Q9UBE0 whole entry): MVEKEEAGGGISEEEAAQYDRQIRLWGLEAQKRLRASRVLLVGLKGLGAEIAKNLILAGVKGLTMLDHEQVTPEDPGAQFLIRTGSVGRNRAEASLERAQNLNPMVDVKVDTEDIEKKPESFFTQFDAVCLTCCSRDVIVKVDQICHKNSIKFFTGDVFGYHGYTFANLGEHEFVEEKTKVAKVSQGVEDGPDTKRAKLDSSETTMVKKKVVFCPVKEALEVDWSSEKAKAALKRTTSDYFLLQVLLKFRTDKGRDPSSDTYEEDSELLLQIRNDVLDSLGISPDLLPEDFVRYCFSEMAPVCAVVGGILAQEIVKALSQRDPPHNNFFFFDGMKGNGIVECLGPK
T6 sequence (Q9UBT2 whole entry): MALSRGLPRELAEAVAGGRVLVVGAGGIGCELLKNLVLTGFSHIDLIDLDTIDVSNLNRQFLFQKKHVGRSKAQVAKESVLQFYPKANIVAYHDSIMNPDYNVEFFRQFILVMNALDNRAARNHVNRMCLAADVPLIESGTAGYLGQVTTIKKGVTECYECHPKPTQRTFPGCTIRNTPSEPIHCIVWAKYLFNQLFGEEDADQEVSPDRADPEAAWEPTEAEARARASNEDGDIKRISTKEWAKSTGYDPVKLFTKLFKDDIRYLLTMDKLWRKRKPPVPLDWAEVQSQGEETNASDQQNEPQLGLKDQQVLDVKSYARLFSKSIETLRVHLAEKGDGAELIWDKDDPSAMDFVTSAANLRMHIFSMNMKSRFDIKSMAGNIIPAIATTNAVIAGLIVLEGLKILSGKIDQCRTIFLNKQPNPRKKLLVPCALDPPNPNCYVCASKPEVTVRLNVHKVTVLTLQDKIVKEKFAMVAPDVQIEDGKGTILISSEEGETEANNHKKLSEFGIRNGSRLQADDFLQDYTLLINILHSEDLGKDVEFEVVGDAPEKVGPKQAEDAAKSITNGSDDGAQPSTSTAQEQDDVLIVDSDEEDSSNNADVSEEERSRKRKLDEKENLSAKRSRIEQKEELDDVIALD
Alkaline phosphatase, placental type, sequence (P05187 whole entry): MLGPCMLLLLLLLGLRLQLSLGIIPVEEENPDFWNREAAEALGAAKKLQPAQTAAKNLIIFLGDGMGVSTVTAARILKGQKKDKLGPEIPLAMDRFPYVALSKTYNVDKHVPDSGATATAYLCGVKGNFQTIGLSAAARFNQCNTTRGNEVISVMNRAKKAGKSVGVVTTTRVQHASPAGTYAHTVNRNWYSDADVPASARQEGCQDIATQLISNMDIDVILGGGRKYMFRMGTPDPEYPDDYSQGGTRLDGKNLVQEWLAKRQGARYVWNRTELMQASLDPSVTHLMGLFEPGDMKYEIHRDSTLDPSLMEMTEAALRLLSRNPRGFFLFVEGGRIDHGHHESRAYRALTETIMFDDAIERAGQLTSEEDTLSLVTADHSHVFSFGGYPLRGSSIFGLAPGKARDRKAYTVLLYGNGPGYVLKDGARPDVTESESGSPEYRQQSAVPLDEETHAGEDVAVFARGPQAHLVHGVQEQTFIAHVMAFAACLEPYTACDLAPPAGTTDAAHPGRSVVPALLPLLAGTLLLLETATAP
Tyrosine-protein phosphatase non-receptor type 7, sequence (P35236 whole entry): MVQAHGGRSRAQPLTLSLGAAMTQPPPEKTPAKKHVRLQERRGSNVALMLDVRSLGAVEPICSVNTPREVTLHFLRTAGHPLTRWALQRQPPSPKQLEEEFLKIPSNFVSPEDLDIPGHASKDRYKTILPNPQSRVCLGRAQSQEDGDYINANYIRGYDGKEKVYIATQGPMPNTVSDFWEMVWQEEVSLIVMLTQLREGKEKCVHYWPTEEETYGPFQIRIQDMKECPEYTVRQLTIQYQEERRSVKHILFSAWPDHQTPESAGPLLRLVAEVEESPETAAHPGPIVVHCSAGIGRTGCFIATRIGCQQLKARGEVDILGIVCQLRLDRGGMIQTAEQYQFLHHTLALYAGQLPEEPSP
E3 ubiquitin-protein ligase Mdm2, sequence (Q00987 whole entry): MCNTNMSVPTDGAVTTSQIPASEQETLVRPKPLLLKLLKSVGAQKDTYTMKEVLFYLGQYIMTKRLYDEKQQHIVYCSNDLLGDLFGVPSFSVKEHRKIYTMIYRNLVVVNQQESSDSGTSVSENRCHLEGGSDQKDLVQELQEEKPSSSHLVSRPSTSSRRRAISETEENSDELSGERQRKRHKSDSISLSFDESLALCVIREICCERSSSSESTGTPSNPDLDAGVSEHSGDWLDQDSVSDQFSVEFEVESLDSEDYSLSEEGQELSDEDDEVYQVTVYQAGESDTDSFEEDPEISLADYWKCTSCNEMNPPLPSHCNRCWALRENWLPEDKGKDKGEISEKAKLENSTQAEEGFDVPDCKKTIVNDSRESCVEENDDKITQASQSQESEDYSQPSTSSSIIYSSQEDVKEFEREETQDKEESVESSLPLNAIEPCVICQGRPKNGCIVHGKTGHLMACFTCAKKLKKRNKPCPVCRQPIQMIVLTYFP
Beta-galactosidase, sequence (Q8VNN2 whole entry): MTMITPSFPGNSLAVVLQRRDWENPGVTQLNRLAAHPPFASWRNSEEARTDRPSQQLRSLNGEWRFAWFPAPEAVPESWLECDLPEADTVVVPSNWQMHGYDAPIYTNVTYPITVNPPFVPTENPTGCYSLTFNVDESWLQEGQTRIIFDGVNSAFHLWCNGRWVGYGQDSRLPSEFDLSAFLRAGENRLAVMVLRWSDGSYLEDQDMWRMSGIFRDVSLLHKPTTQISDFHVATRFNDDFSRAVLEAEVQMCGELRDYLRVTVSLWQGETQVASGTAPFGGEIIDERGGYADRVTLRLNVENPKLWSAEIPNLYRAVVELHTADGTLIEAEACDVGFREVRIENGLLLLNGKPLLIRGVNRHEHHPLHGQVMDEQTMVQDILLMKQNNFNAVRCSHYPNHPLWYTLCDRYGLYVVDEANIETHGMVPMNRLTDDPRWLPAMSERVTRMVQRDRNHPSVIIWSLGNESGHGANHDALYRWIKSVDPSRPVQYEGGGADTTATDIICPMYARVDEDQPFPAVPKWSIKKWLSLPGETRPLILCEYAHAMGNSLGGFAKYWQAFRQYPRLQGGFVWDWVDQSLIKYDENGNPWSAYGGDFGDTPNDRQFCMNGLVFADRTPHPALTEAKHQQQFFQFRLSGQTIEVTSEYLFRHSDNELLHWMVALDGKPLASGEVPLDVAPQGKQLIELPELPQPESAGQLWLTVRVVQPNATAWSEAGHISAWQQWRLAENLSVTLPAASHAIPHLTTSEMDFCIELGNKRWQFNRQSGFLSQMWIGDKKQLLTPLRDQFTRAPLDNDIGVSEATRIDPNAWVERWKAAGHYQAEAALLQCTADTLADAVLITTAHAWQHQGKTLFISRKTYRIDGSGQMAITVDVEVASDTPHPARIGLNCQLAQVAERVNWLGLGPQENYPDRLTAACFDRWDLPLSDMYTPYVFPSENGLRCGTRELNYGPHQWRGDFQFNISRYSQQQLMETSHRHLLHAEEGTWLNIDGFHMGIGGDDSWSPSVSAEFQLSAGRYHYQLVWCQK
G-protein coupled receptor 55, sequence (Q9Y2T6 whole entry): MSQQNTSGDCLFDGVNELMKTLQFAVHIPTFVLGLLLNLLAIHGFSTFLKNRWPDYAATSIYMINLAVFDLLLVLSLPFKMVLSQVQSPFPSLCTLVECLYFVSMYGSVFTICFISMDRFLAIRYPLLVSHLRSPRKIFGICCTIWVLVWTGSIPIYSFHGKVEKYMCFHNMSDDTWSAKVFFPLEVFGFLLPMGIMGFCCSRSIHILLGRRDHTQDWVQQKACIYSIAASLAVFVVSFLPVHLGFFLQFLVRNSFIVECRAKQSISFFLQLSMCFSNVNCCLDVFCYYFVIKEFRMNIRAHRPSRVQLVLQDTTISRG

Structure (SMILES): CC(NC(=O)Cn1ncc(Cl)c(Cl)c1=O)C12CC3CC(CC(C3)C1)C2 (configuration not stated)
- AC50 [1]: 0.441 µM (active)
- IC50 [2]: 2.63 µM
- EC50 [3]: 1.55 µM (active)
- EC50 [4]: > 32 µM (inactive)
- EC50 (Beta-galactosidase): > 31.5 µM (inactive)
- EC50 [5]: 8.55 µM (active)
- IC50 [6]: 6.48 µM (active)
- IC50 [7]: 2.14 µM (active)
- IC50 [8]: 1.07 µM (active)
- EC50 (Protein RecA): 0.047 µM (active)
- EC50 [9]: > 120 µM (not active)
- EC50 [10]: 6.41 µM (active)
- IC50 [11]: 3.92 µM (active)
- EC50 (Mu-type opioid receptor [12]): > 32 µM (inactive)

Structure (SMILES): O=C(Nc1ccccc1)c1ccc2nc(-c3ccco3)c(-c3ccco3)nc2c1
- CC50 [13]: > 40 µM (active)
- IC50 (SUMO-activating enzyme [14]): 20.7 µM (active)
- CC50 [15]: > 40 µM (active)
- IC50 [16]: 2.51 µM (active)
- IC50 (SUMO-activating enzyme [17]): 1.54 µM (active)
- IC50 (Bcl-2-like protein 10): > 100 µM (inactive)

Structure (SMILES): COCCNC(=O)CCC(=O)NNc1nc2ccccc2c2nc(C)nn12
- IC50 [18]: > 100 µM (inactive)
- EC50 [19]: 1.21 µM (active)
- EC50 [20]: 118 µM (active)

Structure (SMILES): CCc1ccc(S(=O)(=O)NCc2ccc(C(=O)NCCN(Cc3ccccc3)Cc3ccccc3)cc2)cc1
- IC50 [21]: > 20 µM (inactive)
- IC50 (Mu-type opioid receptor [22]): > 32 µM (inactive)
- IC50 [23]: > 32 µM (inactive)
- IC50 [24]: > 32 µM (inactive)

Reference: ChEMBL document CHEMBL1201862, “PubChem BioAssay data set” (2004)
